Source: PubChem BioAssay (NCI)
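How tested: cells in 96-well plates exposed to compound for 48 hours at five concentrations. Definition used: TGI = concentration required for complete inhibition of growth.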

Experiments:
Test in all cases: growth of human tumour cells (NCI), 48 h
OVCAR-8 ovarian = system: OVCAR-8 ovarian
OVCAR-5 ovarian = system: OVCAR-5 ovarian
DU-145 prostate = system: DU-145 prostate
COLO 205 colon = system: COLO 205 colon
MDA-MB-435 = system: MDA-MB-435
EKVX NSCLC = system: EKVX NSCLC
MDA-N = system: MDA-N
PC-3 prostate = system: PC-3 prostate
HT29 colon = system: HT29 colon
SF-539 CNS = system: SF-539 CNS
CCRF-CEM leukemia = system: CCRF-CEM leukemia
LOX IMVI melanoma = system: LOX IMVI melanoma
MALME-3M melanoma = system: MALME-3M melanoma
ACHN renal = system: ACHN renal
UO-31 renal = system: UO-31 renal
NCI-H460 lung = system: NCI-H460 lung
SK-OV-3 ovarian = system: SK-OV-3 ovarian
SF-268 CNS = system: SF-268 CNS
HCT-116 colon = system: HCT-116 colon
K-562 leukemia = system: K-562 leukemia
UACC-257 melanoma = system: UACC-257 melanoma
HCT-15 colon = system: HCT-15 colon
NCI-H23 lung = system: NCI-H23 lung
NCI-H226 lung = system: NCI-H226 lung
MDA-MB-231 breast = system: MDA-MB-231 breast
NCI/ADR-RES ovarian = system: NCI/ADR-RES ovarian
KM12 colon = system: KM12 colon
A498 renal = system: A498 renal
MCF7 breast = system: MCF7 breast
SW-620 colon = system: SW-620 colon
RXF 393 renal = system: RXF 393 renal
A549 NSCLC = system: A549 NSCLC
U251 CNS = system: U251 CNS
UACC-62 melanoma = system: UACC-62 melanoma
RPMI-8226 leukemia = system: RPMI-8226 leukemia
SF-295 CNS = system: SF-295 CNS
HL-60(TB) leukemia = system: HL-60(TB) leukemia
NCI-H522 lung = system: NCI-H522 lung
SR leukemia = system: SR leukemia
SNB-19 CNS = system: SNB-19 CNS
OVCAR-3 ovarian = system: OVCAR-3 ovarian
TK-10 renal = system: TK-10 renal
SK-MEL-5 melanoma = system: SK-MEL-5 melanoma
IGROV1 ovarian = system: IGROV1 ovarian
CAKI-1 renal = system: CAKI-1 renal
BT-549 breast = system: BT-549 breast
SK-MEL-2 melanoma = system: SK-MEL-2 melanoma
M14 melanoma = system: M14 melanoma
SN12C renal = system: SN12C renal
MOLT-4 leukemia = system: MOLT-4 leukemia
OVCAR-4 ovarian = system: OVCAR-4 ovarian
T-47D breast = system: T-47D breast
SNB-75 CNS = system: SNB-75 CNS
HCC-2998 colon = system: HCC-2998 colon
SK-MEL-28 melanoma = system: SK-MEL-28 melanoma
HOP-62 NSCLC = system: HOP-62 NSCLC
HS 578T breast = system: HS 578T breast
HOP-92 NSCLC = system: HOP-92 NSCLC
786-0 renal = system: 786-0 renal

Work on `Oc1ccc(-c2nc3cc(C(F)(F)F)ccc3s2)cc1` yielded a TGI (OVCAR-8 ovarian) of 29.4 µM, a TGI (OVCAR-5 ovarian) of 30.9 µM and a TGI (DU-145 prostate) of 30 µM. It also gave a TGI (COLO 205 colon) of 33.1 µM, a TGI (MDA-MB-435) of 29.5 µM and a TGI (EKVX NSCLC) of 16.9 µM. For the same molecule, the TGI (MDA-N) was 32.7 µM, the TGI (PC-3 prostate) was 27.9 µM and the TGI (HT29 colon) was 35.9 µM. The TGI (SF-539 CNS) was 34.2 µM, the TGI (CCRF-CEM leukemia) was 27.8 µM and the TGI (LOX IMVI melanoma) was 26.6 µM. For the same molecule, the TGI (MALME-3M melanoma) was 26.6 µM, the TGI (ACHN renal) was 27.6 µM and the TGI (UO-31 renal) was 26.8 µM. The TGI (NCI-H460 lung) was 30.1 µM, the TGI (SK-OV-3 ovarian) was 40.7 µM and the TGI (SF-268 CNS) was 30.8 µM. The TGI (HCT-116 colon) was 27.6 µM, the TGI (K-562 leukemia) was greater than 100 µM and the TGI (UACC-257 melanoma) was 32.2 µM. For the same molecule, the TGI (HCT-15 colon) was 22.1 µM, the TGI (NCI-H23 lung) was 30.5 µM and the TGI (NCI-H226 lung) was 32.6 µM. It also gave a TGI (MDA-MB-231 breast) of 31 µM, a TGI (NCI/ADR-RES ovarian) of 35.5 µM and a TGI (KM12 colon) of 27.8 µM. For the same molecule, the TGI (A498 renal) was 32.6 µM, the TGI (MCF7 breast) was 23.3 µM and the TGI (SW-620 colon) was 40.2 µM. It also gave a TGI (RXF 393 renal) of 33.2 µM, a TGI (A549 NSCLC) of 29.7 µM and a TGI (U251 CNS) of 30.5 µM. The TGI (UACC-62 melanoma) was 27.2 µM, the TGI (RPMI-8226 leukemia) was 35.4 µM and the TGI (SF-295 CNS) was 28.2 µM. It also gave a TGI (HL-60(TB) leukemia) of 40.7 µM, a TGI (NCI-H522 lung) of 25.7 µM and a TGI (SR leukemia) of 35.2 µM. It also gave a TGI (SNB-19 CNS) of 31.4 µM, a TGI (OVCAR-3 ovarian) of 28.3 µM and a TGI (TK-10 renal) of 33.1 µM. For the same molecule, the TGI (SK-MEL-5 melanoma) was 30 µM, the TGI (IGROV1 ovarian) was 23.8 µM and the TGI (CAKI-1 renal) was 29.1 µM. For the same molecule, the TGI (BT-549 breast) was 28.5 µM, the TGI (SK-MEL-2 melanoma) was 30.1 µM and the TGI (M14 melanoma) was 29.2 µM. The TGI (SN12C renal) was 32.6 µM and the TGI (MOLT-4 leukemia) was 87.5 µM.
`CSc1nnnc2ccccc12` gave a TGI (OVCAR-4 ovarian) greater than 100 µM, a TGI (OVCAR-8 ovarian) greater than 100 µM and a TGI (OVCAR-5 ovarian) greater than 100 µM. For the same molecule, the TGI (T-47D breast) was greater than 100 µM, the TGI (DU-145 prostate) was greater than 100 µM and the TGI (COLO 205 colon) was greater than 100 µM. For the same molecule, the TGI (MDA-MB-435) was greater than 100 µM, the TGI (EKVX NSCLC) was greater than 100 µM and the TGI (MDA-N) was greater than 100 µM. For the same molecule, the TGI (PC-3 prostate) was greater than 100 µM, the TGI (HT29 colon) was greater than 100 µM and the TGI (SF-539 CNS) was greater than 100 µM. The TGI (CCRF-CEM leukemia) was greater than 100 µM, the TGI (LOX IMVI melanoma) was greater than 100 µM and the TGI (SNB-75 CNS) was greater than 100 µM. It also gave a TGI (MALME-3M melanoma) greater than 100 µM, a TGI (ACHN renal) greater than 100 µM and a TGI (UO-31 renal) greater than 100 µM. It also gave a TGI (NCI-H460 lung) greater than 100 µM, a TGI (SK-OV-3 ovarian) greater than 100 µM and a TGI (SF-268 CNS) greater than 100 µM. It also gave a TGI (HCT-116 colon) greater than 100 µM, a TGI (K-562 leukemia) greater than 100 µM and a TGI (UACC-257 melanoma) greater than 100 µM. For the same molecule, the TGI (HCT-15 colon) was greater than 100 µM, the TGI (NCI-H23 lung) was greater than 100 µM and the TGI (NCI-H226 lung) was greater than 100 µM. For the same molecule, the TGI (MDA-MB-231 breast) was greater than 100 µM, the TGI (HCC-2998 colon) was greater than 100 µM and the TGI (NCI/ADR-RES ovarian) was greater than 100 µM. The TGI (KM12 colon) was greater than 100 µM, the TGI (A498 renal) was greater than 100 µM and the TGI (MCF7 breast) was greater than 100 µM. For the same molecule, the TGI (SW-620 colon) was greater than 100 µM, the TGI (SK-MEL-28 melanoma) was greater than 100 µM and the TGI (RXF 393 renal) was greater than 100 µM. The TGI (A549 NSCLC) was greater than 100 µM, the TGI (U251 CNS) was greater than 100 µM and the TGI (UACC-62 melanoma) was greater than 100 µM. It also gave a TGI (RPMI-8226 leukemia) greater than 100 µM, a TGI (SF-295 CNS) greater than 100 µM and a TGI (HL-60(TB) leukemia) greater than 100 µM. It also gave a TGI (NCI-H522 lung) greater than 100 µM, a TGI (SNB-19 CNS) greater than 100 µM and a TGI (OVCAR-3 ovarian) greater than 100 µM. It also gave a TGI (HOP-62 NSCLC) greater than 100 µM, a TGI (TK-10 renal) greater than 100 µM and a TGI (SK-MEL-5 melanoma) greater than 100 µM. It also gave a TGI (HS 578T breast) greater than 100 µM, a TGI (IGROV1 ovarian) greater than 100 µM and a TGI (CAKI-1 renal) greater than 100 µM. The TGI (BT-549 breast) was greater than 100 µM, the TGI (SK-MEL-2 melanoma) was greater than 100 µM and the TGI (M14 melanoma) was greater than 100 µM. For the same molecule, the TGI (HOP-92 NSCLC) was greater than 100 µM, the TGI (786-0 renal) was greater than 100 µM and the TGI (SN12C renal) was greater than 100 µM. It also gave a TGI (MOLT-4 leukemia) greater than 100 µM.
